According to patent publication US5919799A, “Imidazothiazole compound” (Nikken Chemicals Co., Ltd., priority 1995, dated 1999):
Structures can show the parent of a compound that is named as a salt.

Tests used:
[1] = test system: VCR resistant murine leukemic (P388/VCR) cells; assay: In vivo effect of overcoming resistance to vincristine in VCR resistant murine leukemia cell bearing mice (intraperitoneal); design: species or system CDF1 male mice; conditions: i.p., 5 days; for Rate of prolongation of life (T/C %): vs non-administered control
Experimental: (a) 10^6 VCR resistant murine leukemic (P388/VCR) cells were transplanted intraperitoneally to groups of six CDF1 male mice. The compound of the present invention (10 or 100 mg/kg) was suspended in 0.5% sodium carboxymethyl cellulose containing 0.1% Tween 80, while the VCR (100 μg/kg) was dissolved in physiological saline. These were each administered intraperitoneally over 5 days and the mice observed to find the days of survival and the rate of prolongation of life with respect to the control (T/C). The effect in overcoming resistance to an anti-neoplastic agent (T/V) was found from the following formula:
Effect in overcoming resistance to anti-neoplastic agent (T/V%)=(Rate of prolongation of life when co-administering VCR and compound of present invention (T/C%))/(Rate of prolongation of life by VCR alone
In Table 5, "Control" is the non-administered group, VCR alone is the group administered just VCR (100 μg /kg), VCR+Compound 1 is the group co-administered VCR (100 μg /kg) and Compound 1 (100 mg/kg) and so on to VCR+Compound 14* which is the group co-administered VCR (100 μg /kg) and Compound 14 (10 mg/kg).

[2] = test system: VJ-300 cells (multidrug resistant clones of KB cells); assay: In vitro suppression of proliferation of VJ-300 cells by co-administration with vincristine; assay type: cell-based, Human
Experimental: As the incubation solution, an Eagle MEM medium (made by Nissui Seiyakusha) containing 10% fetal calf serum (made by Flow Laboratories Co.) and 0.292 mg/ml L-glutamine (made by Flow Laboratories Co.) was used. The action overcoming resistance to an anti-neoplastic agent and effect in enforcing the effect of an anti-neoplastic agent obtained through co-administration of the anti-neoplastic agent doxorubicin (adriamycin, ADM) and the test compounds were tested as follows:
The test cells were suspended in the incubation medium and adjusted to a cell density of about 200 cells/ml. 2 ml portions of the cell suspension were placed in petri dishes and incubated in a carbon dioxide gas incubator (5% CO2, 95% air) at 37° C. for 24 hours. Next, predetermined concentrations of aqueous ADM solutions and dimethyl sulfoxide (DMSO) solutions of predetermined concentrations of the test compounds were added into 5 to 10 μl portions, then incubation was continued for 7 days. After the end of the incubation, the samples were fixed by methanol, Giemsa staining was performed, the number of colonies in each dish was counted, and a volume reaction curve was prepared. This was used to calculate the ADM concentration at a 50% cell survival rate (LD50) and judge the action overcoming resistance to an anti-neoplastic agent and effect in enhancing the effect of an anti-neoplastic agent.
The LD50 concentration of ADM in the ADM control group for KB cells was shown as the resistance degree "1" and the other LD50 concentrations were indexed against this to calculate the resistance degrees. In Table 2, ADM alone (control) is the group administered ADM alone, ADM+Compound 1 is the group co-administered ADM and Compound 1 (1 μg /ml) and so on down to ADM+Compound 19 which is the group co-administered ADM and Compound 19 (1 μg /ml).
A volume reaction curve was prepared and the resistance calculated. In the Tables, VCR alone (control) is the group administered VCR alone, VCR+Compound 1 is the group co-administered VCR and Compound 1(1 μg /ml) and so on down to VCR+Compound 16 which is the group co-administered VCR and Compound 16 (1 μg/ml).

[3] = test system: VCR resistant murine leukemia (P388/VCR) cells; assay: In vivo effect of overcoming resistance with etoposide (VP-16) in P388/VCR bearing mice (intravenous); design: species or system CDF1 male mice; conditions: i.v., five days; for Rate of prolongation of life (T/C %): vs non-administered control
Experimental: (b) Separately, groups of six CDF1 male mice were intravenously given transplants of 1.2×10^5 VCR resistant murine leukemia (P388/VCR) cells. The compound of the present invention (20 or 40 mg/kg) was dissolved in 0.01N hydrochloric acid. Etoposide (VP-16, 3 mg/kg) was dissolved in a physiological saline solution. These were administered intravenously for five days and the days of survival were found. In the same way as (a), the rate of prolongation of life with respect to the control (T/C) and the effect in overcoming the resistance to an anti-neoplastic agent (T/V) were found. In Table 6, the control is the non-administered group, VP-16 alone is the group administered VP-16 (3 mg/kg) and VP-16+Compound 5 is the group co-administered VP-16 (3 mg/kg) and Compound 5 (40 mg/kg) and so on to VP-16+Compound 16 which is the group co-administered VP-16 (3 mg/kg) and Compound 16 (40 mg/kg).

[4] = Acute toxicity test (a), intraperitoneal, three animals per group; conditions: mouse, in vivo, ip, ICR male mice, up to 7 days after administration
Excerpt: (a) Animals used: ICR male mice (Charles River Japan), 7 to 8 weeks old, were used three to a group.
Test method: The compound of the present invention was suspended in 0.5% sodium carboxymethyl cellulose(CMC-Na) containing 0.1% Tween 80. […] The survival of the animals was examined up to 7 days after administration, then the Van Der Wearder area method was used to calculate the LD50 value.

[5] = VCR (100 μg/kg) + compound (100 mg/kg)
[6] = VCR (100 μg/kg) + compound (100 mg/kg), vs VCR alone
[7] = Table 3, co-administered VCR and test compound (1 μg/ml), relative to VCR alone in KB = 1
[8] = VCR (100 μg/kg) + compound (10 mg/kg)
[9] = Table 4, co-administered VCR and test compound (1 μg/ml), relative to VCR alone in KB = 1
[10] = VP-16 (3 mg/kg) + compound (40 mg/kg)
[11] = VP-16 (3 mg/kg) + compound (40 mg/kg), vs VP-16 alone
[12] = VP-16 (3 mg/kg) + compound (20 mg/kg)

| SMILES | Days of survival [1, 5] [days] | Effect overcoming resistance (T/V %) [1, 6] [%] | Rate of prolongation of life (T/C %) [1, 5] [%] | Resistance with VCR, VJ-300 (resistance degree) [2, 7] | Resistance with VCR, VJ-300 (resistance degree) [2, 9] | also measured |
| --- | --- | --- | --- | --- | --- | --- |
| COc1cc(-c2nc3sc4c(n3c2C=NNC(=O)c2cccnc2)CCCC4)cc(OC)c1OC [Compound 4, 5,6,7,8-tetrahydro-2-(3,4,5-trimethoxyphenyl)-3-(3-pyridylcarbonylaminoiminomethyl)imidazo[2,1-b]benzothiazole] | 13.28 | 120 | 127 | 20.9 |  |  |
| O=C(NN=Cc1c(-c2cccc([N+](=O)[O-])c2)nc2sc3c(n12)CCCC3)c1cccnc1 [Compound 3, 5,6,7,8-tetrahydro-2-(3-nitrophenyl)-3-(3-pyridylcarbonylaminoiminomethyl)imidazo[2,1-b]benzothiazole] |  |  |  | 2.7 |  |  |
| COc1cc([C@@H]2c3cc4c(cc3[C@@H](O[C@@H]3O[C@@H]5CO[C@@H](C)O[C@H]5[C@H](O)[C@H]3O)[C@H]3COC(=O)[C@H]23)OCO4)cc(OC)c1O [VP-16, Etoposide, reference compound] |  |  |  |  |  | Days of survival ([3]; VP-16 alone (3 mg/kg)): 11.2 days; Effect overcoming resistance (T/V %) ([3]; VP-16 alone (3 mg/kg), reference = 100): 100%; Rate of prolongation of life (T/C %) ([3]; VP-16 alone (3 mg/kg)): 109% |
| O=C(NN=Cc1c(-c2ccccc2)nc2sc3ccccc3n12)c1cccnc1 [Compound 14, 2-phenyl-3-[3-pyridylcarbonylaminoiminomethyl]imidazo[2,1-b]benzothiazole] |  |  |  |  | 4.0 | Days of survival [1, 8]: 13.67 days; Effect overcoming resistance (T/V %) ([1]; VCR (100 μg/kg) + compound (10 mg/kg), vs VCR alone): 124%; Rate of prolongation of life (T/C %) [1, 8]: 131% |
| O=C(NN=Cc1c(-c2ccccc2)nc2sc3c(n12)CCCC3)c1cccnc1 [Compound 1, 5,6,7,8-tetrahydro-2-phenyl-3-(3-pyridylcarbonylaminoiminomethyl)imidazo[2,1-b]benzothiazole] | 12.33 | 111 | 118 | 3.3 |  | LD50 at 168 h [4]: ≥ 2000 mg/kg |
| CN1CCCC(C(=O)NN=Cc2c(-c3ccc(-c4ccccc4)cc3)nc3sc4c(n23)CCCC4)C1 (stereo not drawn) [Compound 11, 5,6,7,8-tetrahydro-2-biphenyl-3-[N-methyl-3-piperidylcarbonylaminoiminomethyl]imidazo[2,1-b]benzothiazole hydrochloride] |  |  |  |  | 1.3 | Days of survival [3, 10]: 13.0 days; Effect overcoming resistance (T/V %) [3, 11]: 116%; Rate of prolongation of life (T/C %) [3, 10]: 126% |
| O=C(NN=Cc1c(-c2ccccc2)nc2sc3c(n12)CCCC3)C1CCCN(Cc2ccccc2)C1 (stereo not drawn) [Compound 9, 5,6,7,8-tetrahydro-2-phenyl-3-[N-benzyl-3-piperidylcarbonylaminoiminomethyl]imidazo[2,1-b]benzothiazole] |  |  |  |  | 2.5 |  |
| O=C(NN=Cc1c(-c2ccccc2)nc2sc3c(n12)CCCC3)c1ccccc1 [Compound 8, 5,6,7,8-tetrahydro-2-phenyl-3-(benzoylaminoiminomethyl)imidazo[2,1-b]benzothiazole] | 12.00 | 108 | 115 | 3.5 |  |  |
| O=C(NN=Cc1c(-c2ccc(-c3ccccc3)cc2)nc2sc3c(n12)CCCC3)c1cccnc1 [Compound 2, 5,6,7,8-tetrahydro-2-biphenyl-3-(3-pyridylcarbonylaminoiminomethyl)imidazo[2,1-b]benzothiazole] | 12.67 | 114 | 121 | 1.6 |  | LD50 at 168 h [4]: ≥ 2000 mg/kg |
| CC[C@]1(O)C[C@H]2CN(CCc3c([nH]c4ccccc34)[C@@](C(=O)OC)(c3cc4c(cc3OC)N(C=O)[C@H]3[C@@](O)(C(=O)OC)[C@H](OC(C)=O)[C@]5(CC)C=CCN6CC[C@]43[C@@H]65)C2)C1 [VCR, vincristine, reference compound] |  |  |  |  |  | Days of survival ([1]; VCR alone (100 μg/kg)): 11.08 days; Effect overcoming resistance (T/V %) ([1]; VCR alone (100 μg/kg), reference = 100): 100%; Rate of prolongation of life (T/C %) ([1]; VCR alone (100 μg/kg)): 106%; Resistance with VCR, VJ-300 (resistance degree) ([2]; Table 3, VCR alone (Control), relative to KB = 1): 306.6; Resistance with VCR, VJ-300 (resistance degree) ([2]; Table 4, VCR alone (Control), relative to KB = 1): 843.1 |
| CN1CCCC(C(=O)NN=Cc2c(-c3ccc([N+](=O)[O-])cc3)nc3sc4c(n23)CCCC4)C1 (stereo not drawn) [Compound 10, 5,6,7,8-tetrahydro-2-(4-nitrophenyl)-3-[N-methyl-3-piperidylcarbonylaminoiminomethyl]imidazo[2,1-b]benzothiazole hydrochloride] |  |  |  |  | 8.7 | Days of survival [3, 12]: 12.0 days; Effect overcoming resistance (T/V %) ([3]; VP-16 (3 mg/kg) + compound (20 mg/kg), vs VP-16 alone): 107%; Rate of prolongation of life (T/C %) [3, 12]: 117% |
| CCCN1CCCC(C(=O)NN=Cc2c(-c3ccccc3)nc3sc4ccccc4n23)C1 (stereo not drawn) [Compound 16, 2-phenyl-3-[N-propyl-3-piperidylcarbonylaminoimino-methyl]imidazo[2,1-b]benzothiazole hydrochloride] |  |  |  |  | 2.6 | Days of survival [3, 10]: 12.7 days; Effect overcoming resistance (T/V %) [3, 11]: 113%; Rate of prolongation of life (T/C %) [3, 10]: 123% |
| CC(C)N1CCCC(C(=O)NN=Cc2c(-c3ccccc3)nc3sc4c(n23)CCCC4)C1 (stereo not drawn) [Compound 13, 5,6,7,8-tetrahydro-2-phenyl-3-[N-isopropyl-3-piperidylcarbonylaminoiminomethyl]imidazo[2,1-b]benzothiazole hydrochloride] |  |  |  |  | 2.0 |  |
